Laboratory results reported in US20060063818A1, “Hydantoin derivatives and deren verwendung als tace inhibitoren” (priority 2002, published 2006).

Biological target: T1, proTNF-α convertase enzyme (TACE) (Homo sapiens, UniProt P78536)
T1 construct: a partially purified, isolated enzyme assay, the enzyme being obtained from the membranes of TBP-1; endogenous in cells
Test: Isolated enzyme assay, proTNF-α convertase (TACE), fluorogenic peptide substrate
Assay type: biochemical
Conditions: partially purified enzyme from membranes of TBP-1; 26° C. for 4 hours; read-out: concentration of compound that gave 50% inhibition of TACE
Description: Recombinant human proMMP13 may be expressed and purified as described by Knauper et al. [V. Knauper et al., (1996) The Biochemical Journal 271:1544-1550 (1996)]. The purified enzyme can be used to monitor inhibitors of activity as follows: purified proMMP13 is activated using lmM amino phenyl mercuric […] (APMA), 20 hours at 21° C.; the activated MMP13 (11.25 ng per assay) is incubated for 4-5 hours at 35° C. in assay buffer (0.1M Tris-HCl, pH 7.5 containing 0.1M NaCl, 20 mM CaCl2, 0.02 mM ZnCl and 0.05% (w/v) Brij 35 using the synthetic substrate 7-methoxycoumarin-4-yl)acetyl.Pro.Leu.Gly.Leu.N-3-(2,4-dinitrophenyl)-L2,3-diaminopropionyl.Ala.Arg.NH2 in the presence or absence of inhibitors. Activity is determined by measuring the fluorescence at λex 328 nm and λem 393 nm. Percent inhibition is calculated as follows: % Inhibition is equal to the […].
The ability of the compounds to inhibit proTNF-α convertase enzyme (TACE) may be assessed using a partially purified, isolated enzyme assay, the enzyme being obtained from the membranes of TBP-1 as described by K. M. Mohler et al., (1994) Nature 370:218-220. […] The amount of inhibition is determined as for MMP13 except λex 485 nm and λem 538 nm were used. […]

T1 sequence (P78536 215-824): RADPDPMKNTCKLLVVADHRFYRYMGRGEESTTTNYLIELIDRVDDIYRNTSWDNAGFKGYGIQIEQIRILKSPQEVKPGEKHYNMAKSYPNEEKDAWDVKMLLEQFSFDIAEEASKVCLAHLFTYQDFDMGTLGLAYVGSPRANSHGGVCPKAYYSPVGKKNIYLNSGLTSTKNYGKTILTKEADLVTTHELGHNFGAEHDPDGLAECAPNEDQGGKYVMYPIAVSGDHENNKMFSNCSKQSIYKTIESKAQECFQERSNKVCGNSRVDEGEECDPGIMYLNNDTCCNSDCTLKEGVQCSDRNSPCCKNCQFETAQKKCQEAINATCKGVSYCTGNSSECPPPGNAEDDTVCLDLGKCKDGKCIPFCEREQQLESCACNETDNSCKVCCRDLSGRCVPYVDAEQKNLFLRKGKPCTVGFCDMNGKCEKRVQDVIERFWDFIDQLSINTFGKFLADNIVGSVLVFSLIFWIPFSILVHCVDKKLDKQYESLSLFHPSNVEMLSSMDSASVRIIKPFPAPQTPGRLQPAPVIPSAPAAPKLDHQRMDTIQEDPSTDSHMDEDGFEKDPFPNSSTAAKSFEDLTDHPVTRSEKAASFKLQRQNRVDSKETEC

IC50: 130 nM
Structure (SMILES): Cc1cc(COc2ccc(C3(C)CCN(CC4(c5ccccc5)NC(=O)NC4=O)C3=O)cc2)c2ccccc2n1 (stereo not shown) [compound 6, 5-{3-Methyl-3-[4-(2-methylquinolin-4-ylmethoxy)phenyl]-2oxopyrrolidin-1-ylmethyl}-5-phenylimidazolidine-2,4-dione]
